From patent US12595253B2, “Benzamides of pyrazolylamino-pyrimidinyl derivatives, and compositions and methods thereof” (LYNK PHARMACEUTICALS CO. LTD., priority 2019, dated 2026)
Like-named read-outs stand apart in the source and are kept apart here.

Legend:
Type in all cases: biochemical
TYK2 = molecular target: T1, TYK2 (Homo sapiens, UniProt P29597); assay: TYK2 microfluidic kinase assay (Caliper EZ Reader II, FAM labeled peptide substrate); conditions: IC50 TYK2 ([…]) (1 mM ATP), TYK2 […], 1 mM ATP
T1 construct: purchased Carna Biosciences
T1 sequence (P29597 whole entry): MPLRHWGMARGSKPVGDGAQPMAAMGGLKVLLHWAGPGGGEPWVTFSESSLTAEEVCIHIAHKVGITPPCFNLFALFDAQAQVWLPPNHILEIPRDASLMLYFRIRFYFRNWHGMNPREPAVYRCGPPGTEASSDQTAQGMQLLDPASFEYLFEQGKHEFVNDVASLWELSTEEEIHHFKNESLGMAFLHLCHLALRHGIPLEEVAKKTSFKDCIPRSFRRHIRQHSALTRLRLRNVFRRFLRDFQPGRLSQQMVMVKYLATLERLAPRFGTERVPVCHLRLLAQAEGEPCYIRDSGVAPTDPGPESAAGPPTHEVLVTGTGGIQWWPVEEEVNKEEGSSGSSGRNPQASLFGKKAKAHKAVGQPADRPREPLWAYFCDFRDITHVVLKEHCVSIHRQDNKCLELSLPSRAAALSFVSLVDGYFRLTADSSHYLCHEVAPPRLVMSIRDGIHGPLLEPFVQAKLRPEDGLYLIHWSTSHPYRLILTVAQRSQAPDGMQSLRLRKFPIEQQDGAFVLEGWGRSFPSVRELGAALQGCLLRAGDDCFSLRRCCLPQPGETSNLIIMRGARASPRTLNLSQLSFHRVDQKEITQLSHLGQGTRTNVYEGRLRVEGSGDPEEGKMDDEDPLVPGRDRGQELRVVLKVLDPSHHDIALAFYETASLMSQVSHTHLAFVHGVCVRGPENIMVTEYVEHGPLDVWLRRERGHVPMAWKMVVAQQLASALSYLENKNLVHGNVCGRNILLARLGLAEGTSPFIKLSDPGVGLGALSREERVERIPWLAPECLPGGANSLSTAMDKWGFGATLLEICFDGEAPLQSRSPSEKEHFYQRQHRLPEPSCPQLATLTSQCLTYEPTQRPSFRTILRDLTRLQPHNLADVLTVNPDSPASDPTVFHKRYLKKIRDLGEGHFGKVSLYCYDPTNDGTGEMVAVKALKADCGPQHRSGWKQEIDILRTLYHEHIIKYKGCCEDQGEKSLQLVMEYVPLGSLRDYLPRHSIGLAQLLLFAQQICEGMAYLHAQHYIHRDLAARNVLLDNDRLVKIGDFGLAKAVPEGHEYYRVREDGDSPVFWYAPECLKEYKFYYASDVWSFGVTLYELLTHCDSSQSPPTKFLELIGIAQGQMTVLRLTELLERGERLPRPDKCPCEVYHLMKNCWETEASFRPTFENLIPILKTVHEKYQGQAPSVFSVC
Summary of the method: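 IC50s derive from dose-response of % inhibition of FAM-peptide phosphorylation, read by microfluidic mobility shift after 50 mM EDTA stop. Enzyme pre-incubated 10 min with 3-fold serial dilutions (top 5 μM, 1% DMSO) in HEPES/Brij35/MgCl2/DTT buffer, ~10% conversion; run times 120, 20, 30, 10 min for JAK1, JAK2, JAK2V617F, TYK2.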

JAK2 = molecular target: T2, JAK2 (Homo sapiens, UniProt O60674); assay: JAK2 microfluidic kinase assay (Caliper EZ Reader II, FAM labeled peptide substrate)
T2 construct: purchased Carna Biosciences
T2 sequence (O60674 whole entry): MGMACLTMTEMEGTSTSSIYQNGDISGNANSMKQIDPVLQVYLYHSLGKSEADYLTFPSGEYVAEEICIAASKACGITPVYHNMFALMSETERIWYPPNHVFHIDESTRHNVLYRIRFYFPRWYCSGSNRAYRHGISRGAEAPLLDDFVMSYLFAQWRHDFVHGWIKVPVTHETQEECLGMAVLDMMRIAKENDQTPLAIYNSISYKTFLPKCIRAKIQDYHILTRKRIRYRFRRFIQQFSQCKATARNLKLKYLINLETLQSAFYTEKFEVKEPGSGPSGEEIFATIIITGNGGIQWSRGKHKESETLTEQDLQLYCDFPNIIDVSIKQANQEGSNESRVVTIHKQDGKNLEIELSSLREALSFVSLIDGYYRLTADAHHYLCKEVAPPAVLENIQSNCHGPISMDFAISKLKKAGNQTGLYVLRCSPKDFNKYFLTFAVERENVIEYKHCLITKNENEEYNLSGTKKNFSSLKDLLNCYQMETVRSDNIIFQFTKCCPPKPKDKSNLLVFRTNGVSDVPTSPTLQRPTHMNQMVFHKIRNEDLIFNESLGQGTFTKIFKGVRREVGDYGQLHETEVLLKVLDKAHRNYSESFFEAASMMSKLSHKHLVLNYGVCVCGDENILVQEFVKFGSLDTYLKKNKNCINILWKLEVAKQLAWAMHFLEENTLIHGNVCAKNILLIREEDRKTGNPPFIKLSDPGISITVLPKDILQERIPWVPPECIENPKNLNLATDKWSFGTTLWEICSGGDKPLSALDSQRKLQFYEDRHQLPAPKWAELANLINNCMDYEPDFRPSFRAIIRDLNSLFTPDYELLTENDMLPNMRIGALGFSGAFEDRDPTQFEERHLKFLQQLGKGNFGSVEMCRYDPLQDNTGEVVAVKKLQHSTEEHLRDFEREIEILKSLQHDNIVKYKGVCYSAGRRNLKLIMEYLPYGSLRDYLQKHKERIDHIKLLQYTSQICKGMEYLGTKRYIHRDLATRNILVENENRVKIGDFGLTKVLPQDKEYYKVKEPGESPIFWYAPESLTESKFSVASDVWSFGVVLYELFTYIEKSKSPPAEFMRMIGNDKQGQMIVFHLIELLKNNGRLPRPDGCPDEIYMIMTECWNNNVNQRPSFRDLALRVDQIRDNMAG
Summary of the method: (§1)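 Microfluidic mobility-shift kinase assay in 50 mM HEPES, 0.01% Brij35, 10 mM MgCl2, 2 mM DTT. IC50 values come from percent-inhibition curves normalised to uninhibited and enzyme-free controls.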

JAK1 = molecular target: T3, JAK1 (Homo sapiens, UniProt P23458); assay: JAK1 microfluidic kinase assay (Caliper EZ Reader II, FAM labeled peptide substrate)
T3 construct: purchased Carna Biosciences
T3 sequence (P23458 whole entry): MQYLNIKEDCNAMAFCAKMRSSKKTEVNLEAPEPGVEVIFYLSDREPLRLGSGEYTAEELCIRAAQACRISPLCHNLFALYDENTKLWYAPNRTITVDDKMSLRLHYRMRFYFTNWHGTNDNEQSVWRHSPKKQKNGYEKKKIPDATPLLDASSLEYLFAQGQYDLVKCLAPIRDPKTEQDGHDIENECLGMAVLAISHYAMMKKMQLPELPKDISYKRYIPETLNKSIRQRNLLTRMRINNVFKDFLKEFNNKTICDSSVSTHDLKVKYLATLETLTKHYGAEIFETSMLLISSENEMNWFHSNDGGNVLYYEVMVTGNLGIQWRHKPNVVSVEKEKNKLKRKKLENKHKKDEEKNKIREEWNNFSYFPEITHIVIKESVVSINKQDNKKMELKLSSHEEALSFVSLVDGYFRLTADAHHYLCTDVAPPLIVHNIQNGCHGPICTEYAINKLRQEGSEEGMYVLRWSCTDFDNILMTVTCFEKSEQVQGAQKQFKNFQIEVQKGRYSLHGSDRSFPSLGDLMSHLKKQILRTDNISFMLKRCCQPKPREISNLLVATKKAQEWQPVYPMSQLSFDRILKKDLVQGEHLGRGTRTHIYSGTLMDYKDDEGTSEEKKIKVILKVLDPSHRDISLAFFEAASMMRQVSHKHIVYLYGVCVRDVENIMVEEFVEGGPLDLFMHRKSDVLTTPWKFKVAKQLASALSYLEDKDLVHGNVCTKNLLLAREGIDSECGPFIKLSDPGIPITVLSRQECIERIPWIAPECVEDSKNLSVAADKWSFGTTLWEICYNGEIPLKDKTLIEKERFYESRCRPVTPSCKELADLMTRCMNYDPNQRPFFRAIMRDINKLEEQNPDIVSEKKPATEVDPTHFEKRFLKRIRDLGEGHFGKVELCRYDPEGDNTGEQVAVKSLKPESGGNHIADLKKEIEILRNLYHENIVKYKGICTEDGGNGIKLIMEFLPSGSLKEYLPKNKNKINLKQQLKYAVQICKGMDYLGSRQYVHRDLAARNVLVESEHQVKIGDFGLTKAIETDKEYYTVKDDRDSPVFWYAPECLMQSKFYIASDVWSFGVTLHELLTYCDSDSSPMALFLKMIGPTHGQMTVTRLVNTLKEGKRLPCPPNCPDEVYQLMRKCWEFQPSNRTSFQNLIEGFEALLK
Summary of the method: as §1

FLT3 = molecular target: T4, FLT3 (Homo sapiens, UniProt P36888); assay: FLT3 microfluidic kinase assay
T4 construct: purchased Carna Biosciences
T4 sequence (P36888 27-993): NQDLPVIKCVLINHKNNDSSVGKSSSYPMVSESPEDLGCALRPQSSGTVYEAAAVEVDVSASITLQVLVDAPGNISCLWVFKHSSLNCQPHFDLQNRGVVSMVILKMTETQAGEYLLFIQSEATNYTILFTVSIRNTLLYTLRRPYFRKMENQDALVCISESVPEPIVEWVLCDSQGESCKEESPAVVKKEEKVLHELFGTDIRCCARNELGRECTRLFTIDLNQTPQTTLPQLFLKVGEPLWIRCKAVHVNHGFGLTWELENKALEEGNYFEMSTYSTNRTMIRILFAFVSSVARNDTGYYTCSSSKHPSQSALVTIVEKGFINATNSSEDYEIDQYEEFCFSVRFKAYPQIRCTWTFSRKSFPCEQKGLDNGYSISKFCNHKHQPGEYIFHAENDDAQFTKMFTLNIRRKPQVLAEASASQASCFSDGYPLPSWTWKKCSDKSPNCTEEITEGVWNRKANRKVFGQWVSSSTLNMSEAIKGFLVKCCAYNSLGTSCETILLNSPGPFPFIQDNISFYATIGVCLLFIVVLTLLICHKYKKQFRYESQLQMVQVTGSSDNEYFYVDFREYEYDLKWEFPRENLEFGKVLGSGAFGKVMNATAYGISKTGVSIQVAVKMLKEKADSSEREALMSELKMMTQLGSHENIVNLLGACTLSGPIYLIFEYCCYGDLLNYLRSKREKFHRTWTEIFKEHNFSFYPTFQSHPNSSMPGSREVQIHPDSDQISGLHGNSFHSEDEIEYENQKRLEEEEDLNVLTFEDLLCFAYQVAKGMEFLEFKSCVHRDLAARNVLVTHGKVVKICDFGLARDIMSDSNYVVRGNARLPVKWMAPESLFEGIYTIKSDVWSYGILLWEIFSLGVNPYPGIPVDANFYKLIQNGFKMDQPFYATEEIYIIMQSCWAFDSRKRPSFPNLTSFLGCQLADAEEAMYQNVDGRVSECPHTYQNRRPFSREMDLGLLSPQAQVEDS
Experimental: Compounds were tested against FLT3, FLT3ITD and FLT3D835Y.
Assay Formats: FLT3 activity was determined in the reaction buffer 50 mM HEPES, 10 mM MgCl2 and 2 mM DTT by a microfluidic assay. The phosphorylation of a FAM labeled peptide substrate was monitored in the Caliper EZ Reader II (Perkin Elmer). The assay condition for each batch of enzyme (Carna Biosciences) was optimized to obtain 10% conversion rate of peptide substrate.
The test compounds were dissolved in DMSO to a stock concentration of 10 mM. 3-fold serially diluted compounds with top concentration of 5 μM were pre-incubated with FLT3, FLT3ITD or FLT3D835Y for 10 min at ambient temperature. The final DMSO concentration of assay mixture was 1%. […] The reaction was stopped by adding 50 mM EITA. The reaction time for FLT3, FLT3ITD and FLT3D8335Y was 30 min, 40 min and 40 min, respectively.
And the well without compound but with equivalent DMSO was defined as no inhibition. The percent inhibition was calculated by the following formula. % Inhibition=(Conversionmax−Conversionsample)/(Conversionmax−Conversionmin)*100 • Conversionmax means the conversion rate in the positive well without addition of compound • Conversionmin means the conversion rate in the well without addition of enzyme • Conversionsample means the conversion rate of test compounds
The dose-response (percent inhibition) curve was plotted and IC50 values were determined by GraphPad software.

[1] = IC50 JAK2 ([…]) (1 mM ATP), 1 mM ATP
[2] = IC50 JAK1 (5 nM) (1 m MATP), JAK1 5 nM, 1 mM ATP
[3] = IC50 JAK2 ([…]) (Km ATP), Km ATP
[4] = IC50 JAK1 (10 nM) (Km ATP), JAK1 10 nM, Km ATP

Compound	IC50 (TYK2) [nM]	IC50 (JAK2; [1]) [nM]	IC50 (JAK1; [2]) [nM]	IC50 (FLT3) [nM]	IC50 (JAK2; [3]) [nM]	IC50 (JAK1; [4]) [nM]	IC50 (JAK1; read-out: IC50 JAK1 (5 nM) (1 m MATP), JAK1 5 nM, 1 mM ATP) [nM]
CC[C@@H](C#N)NC(=O)c1ccc(-c2nc(Nc3cnn(C4CC4)c3)ncc2Cl)cc1 [Example 61, (S)-4-(5-chloro-2-((1-cyclopropyl-1H-pyrazol-4-yl)amino)pyrimidin-4-yl)-N-(1-cyanopropyl)benzamide]	52.8	4.73	5.81	3.36	–	–	–
CNC(=O)c1ccc(-c2nc(Nc3cnn(C)c3)ncc2C)cc1 [Example 10, N-Methyl-4-(5-methyl-2-((1-methyl-1H-pyrazol-4-yl)amino)pyrimidin-4-yl)benzamide]	> 5000	> 5000	> 5000	1200	30	–	–
N#CCNC(=O)c1ccc(-c2nc(Nc3cnn(C4CC4)c3)ncc2Cl)cc1 [Example 95, 4-(5-Chloro-2-((1-cyclopropyl-1H-pyrazol-4-yl)amino)pyrimidin-4-yl)-N-(cyanomethyl)benzamide]	58.9	4.48	7.29	5.35	–	–	–
C[C@@H](C#N)NC(=O)c1ccc(-c2nc(Nc3cnn(C4CCN(C)CC4)c3)ncc2Cl)cc1 [Example 43, (S)-4-(5-Chloro-2-((1-(1-methylpiperidin-4-yl)-1H-pyrazol-4-yl)amino)pyrimidin-4-yl)-N-(1-cyanoethyl)benzamide]	29	0.57	11.2	–	–	–	–
Cn1cc(Nc2ncc(Cl)c(-c3ccc(C(=O)NCC#N)cc3)n2)cn1 [Example 34, 4-(5-Chloro-2-((1-methyl-1H-pyrazol-4-yl)amino)pyrimidin-4-yl)-N-(cyanomethyl)benzamide]	98.4	24.4	11.8	10.9	0.7	–	–
Cc1cnc(Nc2cnn(CC#N)c2)nc1-c1ccc(C(=O)NCC#N)cc1 [Example 4, N-(Cyanomethyl)-4-(2-((1-(cyanomethyl)-1H-pyrazol-4-yl)amino)-5-methylpyrimidin-4-yl)benzamide]	62.9	43	8.75	–	2.04	1.73	–
Cc1cnc(Nc2cnn(C3CC(C)(C)OC(C)(C)C3)c2)nc1-c1ccc(C(=O)NCC#N)cc1 [Example 113, N-(cyanomethyl)-4-(5-methyl-2-((1-(2,2,6,6-tetramethyltetrahydro-2H-pyran-4-yl)-1H-pyrazol-4-yl)amino)pyrimidin-4-yl)benzamide]	1.66	< 0.25	–	–	–	–	10.4
C[C@@H](C#N)NC(=O)c1ccc(-c2nc(Nc3cnn(C4CC4)c3)ncc2Cl)cc1 [Example 111, (S)-4-(5-Chloro-2-((1-cyclopropyl-1H-pyrazol-4-yl)amino)pyrimidin-4-yl)-N-(1-cyanoethyl)benzamide]	43.3	2.79	8.64	6.73	–	–	–

Second part, the compound after the results:

IC50 (TYK2) [nM]	IC50 (JAK2; [1]) [nM]	IC50 (JAK1; [2]) [nM]	IC50 (FLT3) [nM]	IC50 (JAK2; [3]) [nM]	IC50 (JAK1; [4]) [nM]	IC50 (JAK1; read-out: IC50 JAK1 (5 nM) (1 m MATP), JAK1 5 nM, 1 mM ATP) [nM]	Compound
2.29	0.42	1.95	–	–	–	–	CC[C@@H](C#N)NC(=O)c1ccc(-c2nc(Nc3cnn(C4CCNCC4)c3)ncc2Cl)cc1 [Example 183, (S)-4-(5-chloro-2-((1-(piperidin-4-yl)-1H-pyrazol-4-yl)amino)pyrimidin-4-yl)-N-(1-cyanopropyl)benzamide]
65	1.16	5.94	–	–	–	–	C[C@@H](C#N)NC(=O)c1ccc(-c2nc(Nc3cnn(C4CCNCC4)c3)ncc2Cl)cc1 [Example 165, (S)-4-(5-chloro-2-((1-(piperidin-4-yl)-1H-pyrazol-4-yl)amino)pyrimidin-4-yl)-N-(1-cyanoethyl)benzamide]
5.15	< 0.25	8.45	–	–	–	–	Cc1cnc(Nc2cnn(C3CCN(C(=O)CO)CC3)c2)nc1-c1ccc(C(=O)N[C@@H](C)C#N)cc1 [Example 119, (S)—N-(1-cyanoethyl)-4-(2-((1-(1-(2-hydroxyacetyl)piperidin-4-yl)-1H-pyrazol-4-yl)amino)-5-methylpyrimidin-4-yl)benzamide]
1.34	0.37	0.61	–	–	–	–	CC[C@@H](C#N)NC(=O)c1ccc(-c2nc(Nc3cnn(C4CCN(C)CC4)c3)ncc2C)cc1 [Example 184, (S)—N-(1-Cyanopropyl)-4-(5-methyl-2-((1-(1-methylpiperidin-4-yl)-1H-pyrazol-4-yl)amino)pyrimidin-4-yl)benzamide]
> 5000	4520	> 5000	1890	149	1890	–	CCNC(=O)c1ccc(-c2nc(Nc3cnn(C)c3)ncc2C)cc1 [Example 222, N-ethyl-4-(5-methyl-2-((1-methyl-1H-pyrazol-4-yl)amino)pyrimidin-4-yl)benzamide]
> 5000	1450	3940	1100	–	–	–	Cc1cnc(Nc2cnn(C)c2)nc1-c1ccc(C(=O)NC(C)C)cc1 [Example 223, N-isopropyl-4-(5-methyl-2-((1-methyl-1H-pyrazol-4-yl)amino)pyrimidin-4-yl)benzamide]
146	41.2	18.9	23.6	1.48	–	–	C[C@@H](C#N)NC(=O)c1ccc(-c2nc(Nc3cnn(C)c3)ncc2Cl)cc1 [Example 125, (S)-4-(5-chloro-2-((1-methyl-1H-pyrazol-4-yl)amino)pyrimidin-4-yl)-N-(1-cyanoethyl)benzamide]
